Data reported in PubChem BioAssay (NCI).
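Exposure lasted 48 hours, with cells grown in 96-well plates and compounds tested at five concentrations. GI50 marks 50% less growth. TGI: total growth inhibition.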

How the values were obtained:
Assay in all cases: inhibition of tumour cell growth, NCI panel, 48 h
OVCAR-4 ovarian = tested on: OVCAR-4 ovarian
HOP-92 NSCLC = tested on: HOP-92 NSCLC
SK-MEL-2 melanoma = tested on: SK-MEL-2 melanoma
ACHN renal = tested on: ACHN renal
U251 CNS = tested on: U251 CNS
OVCAR-8 ovarian = tested on: OVCAR-8 ovarian
SF-539 CNS = tested on: SF-539 CNS
NCI-H23 lung = tested on: NCI-H23 lung
NCI-H522 lung = tested on: NCI-H522 lung
OVCAR-3 ovarian = tested on: OVCAR-3 ovarian

## OCCCNc1ncnc2[nH]ncc12
OVCAR-4 ovarian
  TGI: > 100 µM
HOP-92 NSCLC
  TGI: > 100 µM
SK-MEL-2 melanoma
  TGI: > 100 µM
ACHN renal
  TGI: > 100 µM
U251 CNS
  TGI: > 100 µM
OVCAR-8 ovarian
  TGI: > 100 µM
SF-539 CNS
  TGI: > 100 µM
NCI-H23 lung
  TGI: > 100 µM
NCI-H522 lung
  TGI: > 100 µM
OVCAR-3 ovarian
  TGI: > 100 µM

## O=C(Nc1ccc(-n2cc(-c3ccncc3)c(-c3ccc(O)c(Cl)c3)n2)cc1)Nc1ccc(Cl)c(C(F)(F)F)c1
OVCAR-4 ovarian
  GI50: 3.97 µM
  TGI: 29.9 µM
HOP-92 NSCLC
  GI50: 1.82 µM
  TGI: 5 µM
SK-MEL-2 melanoma
  GI50: 1.97 µM
  TGI: 4.52 µM
ACHN renal
  GI50: 2.66 µM
  TGI: 9.42 µM
U251 CNS
  GI50: 2.53 µM
  TGI: 10.1 µM
OVCAR-8 ovarian
  GI50: 4.11 µM
  TGI: 21.3 µM
SF-539 CNS
  GI50: 2.58 µM
  TGI: 12.5 µM
NCI-H23 lung
  GI50: 3.56 µM
  TGI: 22 µM
NCI-H522 lung
  GI50: 2.54 µM
  TGI: 13.4 µM
OVCAR-3 ovarian
  GI50: 3.23 µM
  TGI: 10.9 µM

## Cn1ccc(C(=O)NCCN(CCNC(=O)c2ccn(C)c(=O)c2O)CCNC(=O)c2ccn(C)c(=O)c2O)c(O)c1=O
OVCAR-4 ovarian
  TGI: > 100 µM
HOP-92 NSCLC
  TGI: > 100 µM
SK-MEL-2 melanoma
  TGI: > 100 µM
ACHN renal
  TGI: > 100 µM
U251 CNS
  TGI: > 100 µM
OVCAR-8 ovarian
  TGI: > 100 µM
SF-539 CNS
  TGI: > 100 µM
NCI-H23 lung
  TGI: > 100 µM
NCI-H522 lung
  TGI: > 100 µM
OVCAR-3 ovarian
  TGI: > 100 µM

## C/C(=N\NC(=S)NCCCCNC(=S)N/N=C(\C)c1ccccn1)c1ccccc1
OVCAR-4 ovarian
  TGI: > 54.2 µM
HOP-92 NSCLC
  TGI: > 57.3 µM
SK-MEL-2 melanoma
  TGI: 97.3 µM
ACHN renal
  TGI: > 24 µM
U251 CNS
  TGI: 15.6 µM
OVCAR-8 ovarian
  TGI: 5.63 µM
SF-539 CNS
  TGI: 3.86 µM
NCI-H23 lung
  TGI: 25.3 µM
NCI-H522 lung
  TGI: 30.7 µM
OVCAR-3 ovarian
  TGI: > 65.2 µM

## Cc1c(Cl)nc(Cl)nc1Cl
OVCAR-4 ovarian
  TGI: 2.8 µM
HOP-92 NSCLC
  TGI: 4.99 µM
ACHN renal
  TGI: 0.829 µM
U251 CNS
  TGI: 3.18 µM
OVCAR-8 ovarian
  TGI: 18.9 µM
SF-539 CNS
  TGI: 5.62 µM
NCI-H23 lung
  TGI: 4.64 µM
NCI-H522 lung
  TGI: 0.118 µM
OVCAR-3 ovarian
  TGI: 3.25 µM

## c1ccc(C(NC2=NCCO2)c2ccccc2)cc1
OVCAR-4 ovarian
  TGI: > 10 µM
SK-MEL-2 melanoma
  TGI: > 10 µM
ACHN renal
  TGI: > 10 µM
U251 CNS
  TGI: > 10 µM
OVCAR-8 ovarian
  TGI: > 10 µM
SF-539 CNS
  TGI: > 10 µM
NCI-H23 lung
  TGI: > 10 µM
NCI-H522 lung
  TGI: > 10 µM
OVCAR-3 ovarian
  TGI: > 10 µM

## CCCn1cc2c(SC)nc(SC)nc2n1
OVCAR-4 ovarian
  TGI: > 100 µM
HOP-92 NSCLC
  TGI: > 100 µM
SK-MEL-2 melanoma
  TGI: > 100 µM
ACHN renal
  TGI: > 100 µM
U251 CNS
  TGI: > 100 µM
OVCAR-8 ovarian
  TGI: > 100 µM
SF-539 CNS
  TGI: > 100 µM
NCI-H23 lung
  TGI: > 100 µM
